In patent US20040147605A1, “Drug preparations” (priority 2001, published 2004):

Test system: male Hartley guinea pigs
Test: Antitussive effect test: capsaicin-induced cough in guinea pigs with SO2-induced respiratory tract inflammation
Assay type: in vivo, guinea pig
Conditions: for Frequency of cough: capsaicin 10^-6 mol/l spray, coughs counted over 15 minutes, control group 22.4 ± 0.8; for Antitussive effect (in words): summary of Table 1, administered alone or in combination
Description: The synergetic effect of using fudosteine and an antitussive compound in combination was examined according to the following method.
Five male Hartley guinea pigs for one group, each having a weight of 300-400 g, were used as test animals. According to the method of Miyata et al. (Arch. Int. Pharmacodyn. Ther., vol. 304, p. 277, 1990), the guinea pigs were exposed to SO2 gas using an exposure apparatus for two hours a day in eight consecutive days to cause respiratory tract inflammation. The samples of which the components and dose are shown in Table 1 were orally administered before exposure to SO2 gas once a day in eight consecutive days since the start date of exposure. The guinea pigs were confined in a chamber without being anesthetized. On the date following the last SO2 exposure date, capsaicin (10^−6 mol/l) was sprayed over the chamber for two minutes using a ultrasonic nebulizer (TUR-3200, Nihon Kohden Corporation) to cause cough in the guinea pigs. […] The frequency of cough during this period was counted.

Compound	Frequency of cough (dextromethorphan 150 mg/kg orally once a day for 8 days)	Frequency of cough (dextromethorphan 300 mg/kg orally once a day for 8 days)	Antitussive effect (in words)	Frequency of cough (fudosteine 30 mg/kg orally once a day for 8 days)
COc1ccc2c(c1)[C@]13CCCC[C@@H]1[C@H](C2)N(C)CC3 [Dextromethorphan]	13.6 ± 1.0	10.2 ± 0.6 ^$	exhibited an antitussive effect	
N[C@@H](CSCCCO)C(=O)O [Fudosteine, S-(3-hydroxypropyl)-L-cysteine]			did not exhibit an antitussive effect	22.6 ± 1.1
